Reference: US10689339B2, “Pyrrolidine derivatives” (Hoffmann-La Roche Inc., priority 2016, dated 2020)

molecular target: human Cat S (Homo sapiens (Human), UniProt P25774); assay: Cathepsin enzyme inhibition assay (fluorogenic peptide substrate Z-Val-Val-Arg-AMC); format: biochemical; settings: enzyme 1 nM, substrate 20 μM, pH 6.5
Procedure: Cathepsin Enzyme Inhibition Assay
Enzyme activity is measured by observing the increase in fluorescence intensity caused by cleavage of a peptide substrate containing a fluorophore whose emission is quenched in the intact peptide.
Assay buffer: 100 mM potassium phosphate pH 6.5, EDTA-Na 5 mM, Triton X-100 0.001%, DTT 5 mM.
Enzymes (all at 1 nM): human and mouse Cathepsin S, Cat K, Cat B, Cat L.
Substrate (20 μM): Z-Val-Val-Arg-AMC, except for Cat K which uses Z-Leu-Arg-AMC (both from Bachem).
AMC=7-Amino-4-Methyl-Coumarin.
Excitation 360 nm, Emission 465 nm.
Enzyme is added to the substance dilutions in 96-well microtitre plates and the reaction is started with substrate. […] IC50 are calculated by standard methods.
Inhibition of human Cat S, mouse Cat S, human Cat K, human Cat B, human Cat L and mouse Cat L have been measured separately.

Sequence of human Cat S (P25774 115-331): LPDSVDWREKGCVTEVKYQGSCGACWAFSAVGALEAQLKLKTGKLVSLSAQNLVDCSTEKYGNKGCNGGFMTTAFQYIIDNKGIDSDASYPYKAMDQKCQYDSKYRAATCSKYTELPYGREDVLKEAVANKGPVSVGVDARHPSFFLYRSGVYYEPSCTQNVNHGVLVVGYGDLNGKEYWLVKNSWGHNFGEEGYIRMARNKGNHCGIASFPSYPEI

Row | SMILES | IC50 [nM]
1 | Cc1nc(C)c(-c2ccc(S(=O)(=O)[C@@H]3C[C@@H](C(=O)NC4(C#N)CC4)N(C(=O)C4(C(F)(F)F)CC4)C3)c(C(F)(F)F)c2)s1 [Example 48, (2S,4R)-4-[4-(2,4-Dimethyl-thiazol-5-yl)-2-trifluoromethyl-benzenesulfonyl]-1-(1-trifluoromethyl-cyclopropanecarbonyl)-pyrrolidine-2-carboxylic acid (1-cyano-cyclopropyl)-amide] | 1.17
2 | CCOc1ccccc1-c1ccc(S(=O)(=O)[C@@H]2C[C@@H](C(=O)NC3(C#N)CC3)N(C(=O)C3(C(F)(F)F)CC3)C2)cc1 [Example 38, (2S,4R)—N-(1-cyanocyclopropyl)-4-(2′-ethoxybiphenyl-4-ylsulfonyl)-1-(1-(trifluoromethyl)cyclopropanecarbonyl)pyrrolidine-2-carboxamide] | 3.21
3 | CCOc1ccccc1-c1ccc(S(=O)(=O)[C@@H]2C[C@@H](C(=O)NC3(C#N)CC3)N(C(=O)C3(C(F)(F)F)CC3)C2)c(C)c1 [Example 40, (2S,4R)—N-(1-cyanocyclopropyl)-4-(2′-ethoxy-3-methylbiphenyl-4-ylsulfonyl)-1-(1-(trifluoromethyl)cyclopropanecarbonyl)pyrrolidine-2-carboxamide] | 1.21
4 | N#CC1(NC(=O)[C@@H]2C[C@@H](S(=O)(=O)c3ccc(-c4ccc5c(c4)OC(F)(F)O5)cc3C(F)(F)F)CN2C(=O)C2(C(F)(F)F)CC2)CC1 [Example 45, (2S,4R)-4-[4-(2,2-Difluoro-benzo[1,3]dioxol-5-yl)-2-trifluoromethyl-benzenesulfonyl]-1-(1-trifluoromethyl-cyclopropanecarbonyl)-pyrrolidine-2-carboxylic acid (1-cyano-cyclopropyl)-amide] | 1.07
5 | Cc1cc(-n2ccc(C(F)(F)F)n2)ccc1S(=O)(=O)[C@@H]1C[C@@H](C(=O)NC2(C#N)CC2)N(C(=O)C2(C(F)(F)F)CC2)C1 [Example 19, (2S,4R)—N-(1-cyanocyclopropyl)-4-(2-methyl-4-(3-(trifluoromethyl)-1H-pyrazol-1-yl)phenylsulfonyl)-1-(1-(trifluoromethyl)cyclopropanecarbonyl)pyrrolidine-2-carboxamide] | 1.43
6 | N#CC1(NC(=O)[C@@H]2C[C@@H](S(=O)(=O)c3ccc(-n4ccnn4)cc3)CN2C(=O)C2(C(F)(F)F)CC2)CC1 [Example 34, (2S,4R)-4-(4-(1H-1,2,3-triazol-1-yl)phenylsulfonyl)-N-(1-cyanocyclopropyl)-1-(1-(trifluoromethyl)cyclopropanecarbonyl)pyrrolidine-2-carboxamide] | 1.06
7 | Cc1cc(-n2cnc(Cl)n2)ccc1S(=O)(=O)[C@@H]1C[C@@H](C(=O)NC2(C#N)CC2)N(C(=O)C2(C(F)(F)F)CC2)C1 [Example 66, (2S,4R)-4-(4-(3-chloro-1H-1,2,4-triazol-1-yl)-2-methylphenylsulfonyl)-N-(1-cyanocyclopropyl)-1-(1-(trifluoromethyl)cyclopropanecarbonyl)pyrrolidine-2-carboxamide] | 223
8 | Cc1cc(C(F)(F)F)nn1-c1ccc(S(=O)(=O)[C@@H]2C[C@@H](C(=O)NC3(C#N)CC3)N(C(=O)C3(C(F)(F)F)CC3)C2)c(Cl)c1 [Example 18, (2S,4R)-4-(2-chloro-4-(5-methyl-3-(trifluoromethyl)-1H-pyrazol-1-yl)phenylsulfonyl)-N-(1-cyanocyclopropyl)-1-(1-(trifluoromethyl)cyclopropanecarbonyl)pyrrolidine-2-carboxamide] | 0.98
9 | Cc1cc(-n2cnc(Cl)n2)ccc1S(=O)(=O)[C@@H]1C[C@H](C(=O)NC2(C#N)CC2)N(C(=O)C2(C(F)(F)F)CC2)C1 [Example 67, (2R,4R)-4-(4-(3-chloro-1H-1,2,4-triazol-1-yl)-2-methylphenylsulfonyl)-N-(1-cyanocyclopropyl)-1-(1-(trifluoromethyl)cyclopropanecarbonyl)pyrrolidine-2-carboxamide] | 542
10 | CCOc1cc(F)c(F)cc1-c1ccc(S(=O)(=O)[C@@H]2C[C@@H](C(=O)NC3(C#N)CC3)N(C(=O)C3(C(F)(F)F)CC3)C2)c(C)c1 [Example 42, (2S,4R)—N-(1-cyanocyclopropyl)-4-(2′-ethoxy-4′,5′-difluoro-3-methylbiphenyl-4-ylsulfonyl)-1-(1-(trifluoromethyl)cyclopropanecarbonyl)pyrrolidine-2-carboxamide] | 1.46
11 | Cc1cc(-c2ccccc2OC(F)(F)F)ccc1S(=O)(=O)[C@@H]1C[C@@H](C(=O)NC2(C#N)CC2)N(C(=O)C2(C(F)(F)F)CC2)C1 [Example 22, (2S,4R)—N-(1-cyanocyclopropyl)-4-(3-methyl-2′-(trifluoromethoxy)biphenyl-4-ylsulfonyl)-1-(1-(trifluoromethyl)cyclopropanecarbonyl)pyrrolidine-2-carboxamide] | 1.14
12 | N#CC1(NC(=O)[C@@H]2C[C@@H](S(=O)(=O)c3ccc(-c4ccccc4OC(F)(F)F)cc3)CN2C(=O)C2(C(F)(F)F)CC2)CC1 [Example 20, (2S,4R)—N-(1-cyanocyclopropyl)-4-(2′-(trifluoromethoxy)biphenyl-4-ylsulfonyl)-1-(1-(trifluoromethyl)cyclopropanecarbonyl)pyrrolidine-2-carboxamide] | 5.72
13 | N#CC1(NC(=O)[C@@H]2C[C@@H](S(=O)(=O)c3ccc(-c4ccccc4OC4CC4)cc3C(F)(F)F)CN2C(=O)C2(C(F)(F)F)CC2)CC1 [Example 6, (2S,4R)-4-(2′-Cyclopropoxy-3-trifluoromethyl-biphenyl-4-sulfonyl)-1-(1-trifluoromethyl-cyclopropanecarbonyl)-pyrrolidine-2-carboxylic acid (1-cyano-cyclopropyl)-amide] | 1.06

Next, values leading:

Row | IC50 [nM] | SMILES
14 | 0.585 | Cc1ncc(-c2ccc(S(=O)(=O)[C@@H]3C[C@@H](C(=O)NC4(C#N)CC4)N(C(=O)C4(C(F)(F)F)CC4)C3)c(C(F)(F)F)c2)s1 [Example 63, (2S,4R)-4-[4-(2-Methyl-thiazol-5-yl)-2-trifluoromethyl-benzenesulfonyl]-1-(1-trifluoromethyl-cyclopropanecarbonyl)-pyrrolidine-2-carboxylic acid (1-cyano-cyclopropyl)-amide]
15 | 0.526 | N#CC1(NC(=O)[C@@H]2C[C@@H](S(=O)(=O)c3ccc(-c4cnn(C(F)F)c4)cc3C(F)(F)F)CN2C(=O)C2(C(F)(F)F)CC2)CC1 [Example 56, (2S,4R)-4-[4-(1-Difluoromethyl-1Hpyrazol-4-yl)-2-trifluoromethyl-benzenesulfonyl]-1-(1-trifluoromethyl-cyclopropanecarbonyl)-pyrrolidine-2-carboxylic acid (1-cyano-cyclopropyl)-amide]
16 | 0.829 | Cn1cc(-c2ccc(S(=O)(=O)[C@@H]3C[C@@H](C(=O)NC4(C#N)CC4)N(C(=O)C4(C(F)(F)F)CC4)C3)c(C(F)(F)F)c2)c(C(F)(F)F)n1 [Example 68, (2S,4R)-4-[4-(1-Methyl-3-trifluoromethyl-1Hpyrazol-4-yl)-2-trifluoromethyl-benzenesulfonyl]-1-(1-trifluoromethyl-cyclopropanecarbonyl)-pyrrolidine-2-carboxylic acid (1-cyano-cyclopropyl)-amide]
17 | 0.772 | Cc1ncn(-c2ccc(S(=O)(=O)[C@@H]3C[C@@H](C(=O)NC4(C#N)CC4)N(C(=O)C4(C(F)(F)F)CC4)C3)c(C(F)(F)F)c2)n1 [Example 24, (2S,4R)-4-[4-(3-Methyl-[1,2,4]triazol-1-yl)-2-trifluoromethyl-benzenesulfonyl]-1-(1-trifluoromethyl-cyclopropanecarbonyl)-pyrrolidine-2-carboxylic acid (1-cyano-cyclopropyl)-amide]
18 | 0.943 | Cc1cc(-c2ccccc2CO)ccc1S(=O)(=O)[C@@H]1C[C@@H](C(=O)NC2(C#N)CC2)N(C(=O)C2(C(F)(F)F)CC2)C1 [Example 59, (2S,4R)—N-(1-cyanocyclopropyl)-4-(2′-(hydroxymethyl)-3-methylbiphenyl-4-ylsulfonyl)-1-(1-(trifluoromethyl)cyclopropanecarbonyl)pyrrolidine-2-carboxamide]
19 | 0.978 | N#CC1(NC(=O)[C@@H]2C[C@@H](S(=O)(=O)c3ccc(-c4ccccc4OC(F)(F)F)cc3C(F)(F)F)CN2C(=O)C2(C(F)(F)F)CC2)CC1 [Example 4, (2S,4R)-4-(2′-Trifluoromethoxy-3-trifluoromethyl-biphenyl-4-sulfonyl)-1-(1-trifluoromethyl-cyclopropanecarbonyl)-pyrrolidine-2-carboxylic acid (1-cyano-cyclopropyl)-amide]
20 | 0.529 | Cc1ncn(-c2ccc(S(=O)(=O)[C@@H]3C[C@@H](C(=O)NC4(C#N)CC4)N(C(=O)C4(C(F)(F)F)CC4)C3)c(Cl)c2)n1 [Example 14, (2S,4R)-4-(2-chloro-4-(3-methyl-1H-1,2,4-triazol-1-yl)phenylsulfonyl)-N-(1-cyanocyclopropyl)-1-(1-(trifluoromethyl)cyclopropanecarbonyl)pyrrolidine-2-carboxamide]
21 | 0.614 | Cc1nc(C)c(-c2ccc(S(=O)(=O)[C@@H]3C[C@@H](C(=O)NC4(C#N)CC4)N(C(=O)C4(C(F)(F)F)CC4)C3)c(C)c2)s1 [Example 60, (2S,4R)—N-(1-cyanocyclopropyl)-4-(4-(2,4-dimethylthiazol-5-yl)-2-methylphenylsulfonyl)-1-(1-(trifluoromethyl)cyclopropanecarbonyl)pyrrolidine-2-carboxamide]
22 | 0.683 | Cc1nnnn1-c1ccc(S(=O)(=O)[C@@H]2C[C@@H](C(=O)NC3(C#N)CC3)N(C(=O)C3(C(F)(F)F)CC3)C2)c(Cl)c1 [Example 9, (2S,4R)-4-(2-chloro-4-(5-methyl-1H-tetrazol-1-yl)phenylsulfonyl)-N-(1-cyanocyclopropyl)-1-(1-(trifluoromethyl)cyclopropanecarbonyl)pyrrolidine-2-carboxamide]
